We go through six molecules from patent US20100266604A1, “USE OF TAM RECEPTOR INHIBITORS AS IMMUNOENHANCERS AND TAM ACTIVATORS AS IMMUNOSUPPRESSORS” (The Salk Institute for Biological Studies, priority 2007, published 2010).

Assay [1] has as its system TLR-induced cytokine production in DCs. The experiment in a line: DC activation assay: TLR-induced cytokine production (ELISA / ISRE luciferase reporter). Type of assay: cell-based, mouse. The following applies: IFNα, 10 nM CpG, 15 hours, 3 nM ProS (FIG. 8A). As for the experimental part: Splenic DC or BM-DCs (1×10^6 cells/ml) were cultured overnight in serum-free medium (StemSpan, StemCell Technologies Inc.) in the presence of the indicated concentrations of LPS from Salmonella minnesota R595 Re (Alexis), CpG-ODN 1668 (TCCATGACGTTCCGATGCT; SEQ ID NO: 19; Integrated DNA Technologies) or Poly I:C (InvivoGen) alone or in the presence of murine recombinant Gas6 (R&D Systems) or murine recombinant Protein S (produced as described in Prasad et al., (2006) Mol Cell Neurosci 33:96-108). Cytokine production was quantified in cell-free supernatants by ELISA (ebioscience for IL-12, IL-6 and TNFα and PBL-biomedical for IFNα) or by a luciferase assay using a cell line containing an ISRE-responsive element luciferase reporter construct for Type I IFN (Jiang et al., (2005) Nat Immunol 6:565-570).
A general note: In an ELISA, binding on a coated surface is turned into a signal by an enzyme label.

Assay [2] relates to Axl mRNA and protein in DCs. The experiment in a line: Axl expression in DCs (Q-PCR, FACS, Western blot). It counts as cell-based, mouse. To be noted: for Axl expression by Western blot: WT DCs. The protocol: (§1) Splenic DCs (1×10^6 cells/ml) or BM-DCs (5×10^6 cells/ml) were cultured in serum-free medium and treated with the indicated concentrations of murine recombinant Gas6, murine recombinant Protein S, the TLR ligands indicated above, recombinant mouse IFNα (PBL Biomedical laboratories), recombinant mouse Axl-FC chimera (R&D), cyclohexamide (Sigma) or Actinomycin D (Sigma). Whole cell lysates and RNA extraction were performed as indicated below.
DCs were washed in PBS and harvested in NuPage LDS sample buffer (Invitrogen) with 100 μM DTT. Whole cell lysates were resolved by electrophoresis, proteins were transferred to a PVDF membrane (Immobilon P, Millipore), blocked in 3% BSA/TBS-Tween-20 and probed with the indicated antibodies. For fluorescent western blotting with the Odyssey system, proteins were transferred to an Immobilon-FL PVDF membrane (Millipore) and incubated with two primary antibodies in 0.1% casein/PBS-Tween-20. Following incubation with fluorescence-labeled secondary antibodies, membranes were scanned with the Odyssey imaging system (LI-COR).
(§2) After stimulation, cells were harvested, and total RNA was isolated using the RNeasy mini kit (Qiagen). Reverse transcription was performed according to manufacturer instructions with RT Superscript III (Invitrogen). PCR reactions were performed on an ABI Prism 7700 Sequence Detection System using SYBRGreen PCR master mix (Applied Biosystems). Each reaction was normalized against the expression of β-actin or GAPDH. Analyses of dissociation curves were performed with SDS software (Applied Biosystems) to ensure the absence of nonspecific amplification. Q-PCR primers used herein are listed below.
Cells were incubated for 15 minutes with a rat mAb to CD16/32 to block Fc receptors and then with primary antibodies for 20 minutes on ice. The following mAbs against murine molecules were used: allophycocyanin- and phycoerythrin-conjugated anti-CD11c, FITC-conjugated anti-MHC class I (H-2K^b) and anti-MHC class II (I-A^b), PerCP-Cy5.5-conjugated anti-CD3, anti-CD19 and anti-NK1.1 (all from BD Pharmingen). For Axl staining, cells were processed as described, fixed with 10% paraformaldehyde, permeabilized with Saponin (0.1%, Sigma), incubated with Axl (M-20) antibody for 30 minutes and then with anti-goat Cy5 antibody (Jackson ImmunoResearch). Fluorescent cells were acquired with a FacsSort flow cytometer (Becton Dickinson) and analyzed with FlowJo (Tree Star) software.
In general terms: A western blot detects proteins with antibodies after separation by electrophoresis.

Assay [3] concerns the target TAM receptors (on mouse dendritic cells). The assay is described as follows: cell-based or functional assay.
For assay [4], the system named is SOCS1 and SOCS3 mRNA in DCs. The experiment in a line: Q-PCR of SOCS1 and SOCS3 mRNA in DCs. It counts as cell-based, mouse. The following applies: for SOCS1 mRNA induction: 300 U/ml IFNα. As for the experimental part:
as §1, §2

For assay [5], the system named is IRF-7 and IFI-204 mRNA in DCs. The assay is described as follows: Q-PCR of IRF-7 and IFI-204 mRNA in DCs. Type of assay: cell-based, mouse. The following applies: splenic DCs, 300 U/ml IFNα. The protocol: as §1, §2
Assay [6] has as its target T1, Axl (mouse, endogenous in bone marrow-derived dendritic cells) (mouse, UniProt Q00993 19-888).
T1 construct: whole, on cells; Endogenous protein co-immunoprecipitated from Triton X-100 lysates of mouse BM-DCs, not a recombinant construct; also called TAM receptor
T1 sequence (looked up): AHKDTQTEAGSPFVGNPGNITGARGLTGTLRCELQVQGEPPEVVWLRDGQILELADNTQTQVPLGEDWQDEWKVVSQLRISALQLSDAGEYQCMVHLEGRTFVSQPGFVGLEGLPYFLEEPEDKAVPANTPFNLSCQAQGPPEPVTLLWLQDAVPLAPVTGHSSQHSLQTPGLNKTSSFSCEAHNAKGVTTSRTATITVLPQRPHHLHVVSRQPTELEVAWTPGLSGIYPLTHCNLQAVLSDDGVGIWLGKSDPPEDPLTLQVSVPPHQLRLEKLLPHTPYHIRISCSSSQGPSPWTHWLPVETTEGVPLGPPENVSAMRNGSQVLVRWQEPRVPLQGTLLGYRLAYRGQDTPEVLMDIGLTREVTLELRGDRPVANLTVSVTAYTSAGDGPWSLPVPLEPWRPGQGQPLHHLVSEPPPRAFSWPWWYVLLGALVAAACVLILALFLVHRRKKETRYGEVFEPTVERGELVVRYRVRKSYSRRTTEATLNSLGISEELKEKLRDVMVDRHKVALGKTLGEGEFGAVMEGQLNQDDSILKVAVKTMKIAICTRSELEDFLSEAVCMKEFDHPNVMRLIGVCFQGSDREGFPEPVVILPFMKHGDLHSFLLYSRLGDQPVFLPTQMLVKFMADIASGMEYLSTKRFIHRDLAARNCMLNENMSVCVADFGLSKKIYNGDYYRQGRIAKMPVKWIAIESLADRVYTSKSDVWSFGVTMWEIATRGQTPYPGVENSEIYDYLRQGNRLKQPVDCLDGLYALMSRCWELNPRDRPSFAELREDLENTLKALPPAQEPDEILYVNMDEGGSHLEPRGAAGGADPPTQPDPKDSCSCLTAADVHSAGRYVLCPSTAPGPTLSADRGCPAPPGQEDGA
The assay is described as follows: co-immunoprecipitation from BM-DC whole cell lysates, untreated (-) or treated 20 min with 50 nM Gas6 (+); IP with antibody to the IFN receptor R2 chain, immunoblot for Axl.

Assay [7] deals with T2, STAT1 (mouse, UniProt P42225).
T2 construct: endogenous full-length protein in the cell lysate; also called total STAT1
T2 sequence (transcription factor, looked up): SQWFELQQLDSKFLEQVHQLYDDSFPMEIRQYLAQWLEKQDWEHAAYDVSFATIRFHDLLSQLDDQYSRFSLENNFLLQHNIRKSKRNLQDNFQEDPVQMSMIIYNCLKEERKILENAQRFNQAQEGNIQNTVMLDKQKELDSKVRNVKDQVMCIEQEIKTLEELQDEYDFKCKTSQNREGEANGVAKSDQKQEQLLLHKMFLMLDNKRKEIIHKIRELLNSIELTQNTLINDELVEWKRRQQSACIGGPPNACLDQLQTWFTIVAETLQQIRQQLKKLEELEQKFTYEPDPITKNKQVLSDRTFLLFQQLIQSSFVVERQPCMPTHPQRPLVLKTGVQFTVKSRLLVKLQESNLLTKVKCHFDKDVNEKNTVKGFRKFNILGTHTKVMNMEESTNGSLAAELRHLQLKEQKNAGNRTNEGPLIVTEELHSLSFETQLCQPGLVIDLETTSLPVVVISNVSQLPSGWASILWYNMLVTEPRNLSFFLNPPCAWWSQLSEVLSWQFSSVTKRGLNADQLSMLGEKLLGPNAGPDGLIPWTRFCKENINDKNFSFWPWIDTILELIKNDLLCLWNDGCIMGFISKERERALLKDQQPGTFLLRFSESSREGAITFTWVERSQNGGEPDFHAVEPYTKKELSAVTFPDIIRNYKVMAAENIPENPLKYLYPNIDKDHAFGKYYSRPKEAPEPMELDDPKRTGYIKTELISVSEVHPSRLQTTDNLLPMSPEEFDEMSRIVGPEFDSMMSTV
The assay is described as follows: co-immunoprecipitation from BM-DC whole cell lysates, untreated (-) or treated 20 min with 50 nM Gas6 (+); IP with antibody to the IFN receptor R1 chain, immunoblot for STAT1.

As for “ProS: murine recombinant Protein S, the second agonist for TAM receptors”, in assay [1], the “inhibiting TLR-induced cytokine production in WT DCs, compared with Gas6” value is reported as “equally effective”.

With poly I:C, the Axl induction entry in assay [2] (Ifnar−/− DCs) and in assay [2] (STAT1−/− DCs) was “lost” in each case. For the same molecule, in assay [2], the “Axl expression by Western blot” value is on record as “substantial up-regulation”.

In assay [3], “murine recombinant Gas6 (R&D Systems) (from UniProt Q61592 28-674) (ligand)” showed an SOCS1 mRNA expression in BM-DCs (Q-PCR) after addition of 50 nM Gas6 of 10 fold and an SOCS3 mRNA expression in BM-DCs (Q-PCR) after addition of 50 nM Gas6 of 10 fold.

As to IFNα, the “SOCS1 mRNA expressed by TAM TKO DCs relative to WT DCs” value in assay [4] (IFN-treated, integrated over the 6-hour time course) was ~24%. For the same molecule, the “SOCS1 mRNA induction” value in assay [4] (TAM TKO splenic DCs) is “significantly blunted”; in assay [4] (WT splenic DCs, 2 hours, sustained up to 6 hours) it was “robust induction”. For the same molecule, the Axl induction entry in assay [2] (STAT1−/− DCs) was “lost”. The “Axl expression by Western blot” value in assay [2] is recorded as “substantial up-regulation”. Moreover, in assay [5], the “IFNα-induced IRF-7 and IFI-204 mRNA levels, WT versus TAM TKO DCs” value is on record as “indistinguishable”.

B1: IFNAR2 (receptor, mouse, UniProt O35664 22-513, looked up)
receptor chain: SLETITPSAFDGYPDEPCTINITIRNSRLILSWELENKSGPPANYTLWYTVMSKDENLTKVKNCSDTTKSSCDVTDKWLEGMESYVVAIVIVHRGDLTVCRCSDYIVPANAPLEPPEFEIVGFTDHINVTMEFPPVTSKIIQEKMKTTPFVIKEQIGDSVRKKHEPKVNNVTGNFTFVLRDLLPKTNYCVSLYFDDDPAIKSPLKCIVLQPGQESGLSESAIVGITTSCLVVMVFVSTIVMLKRIGYICLKDNLPNVLNFRHFLTWIIPERSPSEAIDRLEIIPTNKKKRLWNYDYEDGSDSDEEVPTASVTGYTMHGLTGKPLQQTSDTSASPEDPLHEEDSGAEESDEAGAGAGAEPELPTEAGAGPSEDPTGPYERRKSVLEDSFPREDNSSMDEPGDNIIFNVNLNSVFLRVLHDEDASETLSLEEDTILLDEGPQRTESDLRIAGGDRTQPPLPSLPSQDLWTEDGSSEKSDTSDSDADVGDGYIMR
notes: endogenous full-length protein in the cell lysate; also called R2 chain of the type I IFN receptor; IFN receptor R2 chain
B1: the binding result in assay [6] is listed as “no binding”.

B2: R1 chain of the type I IFN receptor (mouse, endogenous in BM-DCs) (receptor, UniProt P33896 27-590, looked up)
chain: ENLKPPENIDVYIIDDNYTLKWSSHGESMGSVTFSAEYRTKDEAKWLKVPECQHTTTTKCEFSLLDTNVYIKTQFRVRAEEGNSTSSWNEVDPFIPFYTAHMSPPEVRLEAEDKAILVHISPPGQDGNMWALEKPSFSYTIRIWQKSSSDKKTINSTYYVEKIPELLPETTYCLEVKAIHPSLKKHSNYSTVQCISTTVANKMPVPGNLQVDAQGKSYVLKWDYIASADVLFRAQWLPGYSKSSSGSRSDKWKPIPTCANVQTTHCVFSQDTVYTGTFFLHVQASEGNHTSFWSEEKFIDSQKHILPPPPVITVTAMSDTLLVYVNCQDSTCDGLNYEIIFWENTSNTKISMEKDGPEFTLKNLQPLTVYCVQARVLFRALLNKTSNFSEKLCEKTRPGSFSTIWIITGLGVVFFSVMVLYALRSVWKYLCHVCFPPLKPPRSIDEFFSEPPSKNLVLLTAEEHTERCFIIENTDTVAVEVKHAPEEDLRKYSSQTSQDSGNYSNEEEESVGTESGQAVLSKAPCGGPCSVPSPPGTLEDGTCFLGNEKYLQSPALRTEPALLC
notes: whole, on cells; Endogenous protein immunoprecipitated from mouse BM-DC lysates; also called IFNAR1; IFN receptor R1 chain
Consider B2, for which the binding result in assay [7] is “no binding”.
